EC50 and IC50 data for three compounds are collected here from ChEMBL document CHEMBL1201862, “PubChem BioAssay data set” (2004).

Experiment [1] deals with T1, RNA-binding protein pos-1 (Caenorhabditis elegans, UniProt G5EF15).
T1 sequence (G5EF15 whole entry): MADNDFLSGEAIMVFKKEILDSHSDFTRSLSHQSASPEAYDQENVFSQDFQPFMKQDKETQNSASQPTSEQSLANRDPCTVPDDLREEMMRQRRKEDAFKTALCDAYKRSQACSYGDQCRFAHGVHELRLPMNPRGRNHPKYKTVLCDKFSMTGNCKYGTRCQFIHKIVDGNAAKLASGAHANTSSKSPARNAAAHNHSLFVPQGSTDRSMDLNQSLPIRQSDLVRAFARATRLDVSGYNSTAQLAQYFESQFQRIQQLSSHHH
The experiment can be described thus: inhibitors of POS-1/mex-3 RNA binding, dose response, biochemical, fluorescence polarization (AID 1964).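 Note: purified POS-1 fused to maltose binding protein made in E. coli; potency of compounds blocking POS-1 binding to fluorescent RNA.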

Experiment [2] has as its target T2, Zinc finger protein mex-5 (Caenorhabditis elegans, UniProt Q9XUB2).
T2 sequence (Q9XUB2 whole entry): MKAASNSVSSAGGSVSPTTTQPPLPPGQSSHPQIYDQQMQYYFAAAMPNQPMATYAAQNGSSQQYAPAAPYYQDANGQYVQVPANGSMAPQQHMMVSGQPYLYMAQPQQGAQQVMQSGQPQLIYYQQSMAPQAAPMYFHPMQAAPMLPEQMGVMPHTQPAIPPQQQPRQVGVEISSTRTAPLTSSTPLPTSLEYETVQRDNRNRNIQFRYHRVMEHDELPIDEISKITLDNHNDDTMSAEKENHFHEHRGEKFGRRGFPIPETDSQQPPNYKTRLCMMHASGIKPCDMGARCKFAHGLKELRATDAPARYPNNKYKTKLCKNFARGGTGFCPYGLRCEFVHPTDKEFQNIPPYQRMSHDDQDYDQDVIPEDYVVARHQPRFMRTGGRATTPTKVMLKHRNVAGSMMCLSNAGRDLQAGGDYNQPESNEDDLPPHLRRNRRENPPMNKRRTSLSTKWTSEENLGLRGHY
Description: MEX-5/TCR-2 RNA interaction inhibitors, dose response, biochemical, C. elegans, fluorescence polarization (AID 1960). In general terms: In fluorescence polarisation assays a small probe gives low polarisation when free and higher when bound to something large.

Experiment [3] deals with T3, Intestinal-type alkaline phosphatase (Mus musculus, UniProt P24822). The experiment can be described thus: PubChem AID 488874. The experiment is classed as functional.
T3 sequence (P24822 whole entry): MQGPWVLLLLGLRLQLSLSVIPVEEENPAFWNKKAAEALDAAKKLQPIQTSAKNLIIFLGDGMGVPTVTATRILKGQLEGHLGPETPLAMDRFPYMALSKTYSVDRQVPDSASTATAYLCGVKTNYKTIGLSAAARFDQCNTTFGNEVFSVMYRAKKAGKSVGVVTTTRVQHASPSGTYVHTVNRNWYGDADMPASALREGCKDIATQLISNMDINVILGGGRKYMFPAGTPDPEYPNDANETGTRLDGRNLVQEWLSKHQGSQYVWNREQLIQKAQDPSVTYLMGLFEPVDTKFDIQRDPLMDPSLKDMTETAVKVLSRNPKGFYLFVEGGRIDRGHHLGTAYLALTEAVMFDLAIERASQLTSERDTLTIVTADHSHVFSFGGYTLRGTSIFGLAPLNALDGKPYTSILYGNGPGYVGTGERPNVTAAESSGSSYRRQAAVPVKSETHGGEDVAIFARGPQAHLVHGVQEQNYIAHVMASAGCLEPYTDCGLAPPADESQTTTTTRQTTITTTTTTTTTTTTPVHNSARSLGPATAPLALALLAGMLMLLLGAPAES
The target of experiment [4] is T4, Intestinal-type alkaline phosphatase (Homo sapiens, UniProt P09923). The experiment can be described thus: human IAP inhibitors, dose response, biochemical, luminescent, uHTS hits, set 2 (AID 488793). Type of experiment: functional.
T4 sequence (P09923 whole entry): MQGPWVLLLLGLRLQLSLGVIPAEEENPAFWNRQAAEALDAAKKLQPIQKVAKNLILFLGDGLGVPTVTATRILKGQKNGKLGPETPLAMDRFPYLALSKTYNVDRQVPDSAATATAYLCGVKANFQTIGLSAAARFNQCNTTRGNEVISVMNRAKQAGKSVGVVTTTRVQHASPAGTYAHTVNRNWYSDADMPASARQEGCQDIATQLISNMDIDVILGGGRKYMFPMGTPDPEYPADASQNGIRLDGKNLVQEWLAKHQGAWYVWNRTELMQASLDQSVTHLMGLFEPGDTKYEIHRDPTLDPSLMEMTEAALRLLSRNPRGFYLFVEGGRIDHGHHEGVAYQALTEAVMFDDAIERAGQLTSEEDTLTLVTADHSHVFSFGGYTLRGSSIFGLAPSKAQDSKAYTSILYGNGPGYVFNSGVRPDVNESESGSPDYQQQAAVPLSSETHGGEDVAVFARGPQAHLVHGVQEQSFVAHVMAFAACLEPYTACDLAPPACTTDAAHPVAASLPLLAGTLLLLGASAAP
In experiment [5] the target is T4, Intestinal-type alkaline phosphatase. Description: Dose Response confirmation of uHTS hits from a small molecule inhibitors of human intestinal alkaline phosphatase via a luminescent assay. [Related pubchem assays (depositor defined):AID2544, AID2574]. Type of experiment: functional.
For experiment [6] the target is unchanged. The experiment can be described thus: activation of human intestinal alkaline phosphatase – biochemical, dose response (AID 488873). Type of experiment: functional.
In experiment [7] the target is T3, Intestinal-type alkaline phosphatase. The experiment can be described thus: PubChem AID 488785. The experiment is classed as functional.
Experiment [8] deals with Alkaline phosphatase, placental type (Homo sapiens, UniProt P05187). Description: PLAP enzyme inhibitors, confirmation, biochemical, luminescence (AID 1512). Type of experiment: functional.
Sequence of Alkaline phosphatase, placental type (P05187 whole entry): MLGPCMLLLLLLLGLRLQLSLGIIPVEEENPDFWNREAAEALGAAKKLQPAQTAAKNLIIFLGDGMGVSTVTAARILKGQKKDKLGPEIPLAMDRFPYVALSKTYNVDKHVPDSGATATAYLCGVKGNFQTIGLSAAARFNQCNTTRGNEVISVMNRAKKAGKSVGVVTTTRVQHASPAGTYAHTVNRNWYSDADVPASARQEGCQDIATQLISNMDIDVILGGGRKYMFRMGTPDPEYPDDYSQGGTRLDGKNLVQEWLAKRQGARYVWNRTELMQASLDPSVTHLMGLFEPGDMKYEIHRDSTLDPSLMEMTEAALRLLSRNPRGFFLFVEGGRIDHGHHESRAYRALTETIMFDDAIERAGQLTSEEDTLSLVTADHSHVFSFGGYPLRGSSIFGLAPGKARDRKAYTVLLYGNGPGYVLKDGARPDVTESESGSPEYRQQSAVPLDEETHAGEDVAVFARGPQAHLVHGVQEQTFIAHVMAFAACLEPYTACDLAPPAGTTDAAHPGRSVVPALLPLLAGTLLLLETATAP
Experiment [9] has as its target T5, Alkaline phosphatase, tissue-nonspecific isozyme (Homo sapiens, UniProt P05186).
T5 sequence (P05186 whole entry): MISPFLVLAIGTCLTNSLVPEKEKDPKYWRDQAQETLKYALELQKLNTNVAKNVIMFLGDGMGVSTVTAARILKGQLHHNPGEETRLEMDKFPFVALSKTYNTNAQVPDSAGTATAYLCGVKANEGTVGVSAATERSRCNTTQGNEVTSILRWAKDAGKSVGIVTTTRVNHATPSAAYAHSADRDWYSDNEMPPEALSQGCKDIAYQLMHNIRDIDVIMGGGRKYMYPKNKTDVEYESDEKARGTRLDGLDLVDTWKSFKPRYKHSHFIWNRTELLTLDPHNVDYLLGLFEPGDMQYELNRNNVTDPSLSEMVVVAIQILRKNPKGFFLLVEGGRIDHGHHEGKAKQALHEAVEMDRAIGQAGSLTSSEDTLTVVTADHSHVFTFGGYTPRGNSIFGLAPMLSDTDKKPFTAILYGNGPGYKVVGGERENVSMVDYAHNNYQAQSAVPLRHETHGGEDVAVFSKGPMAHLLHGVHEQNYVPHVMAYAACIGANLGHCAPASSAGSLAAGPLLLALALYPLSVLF
Description: human TNAP enzyme inhibitors, SAR follow-up, biochemical, luminescent, dose response (AID 1056).

Experiment [10] has as its target T5, Alkaline phosphatase, tissue-nonspecific isozyme. Description: TNAP enzyme inhibition by screening hits, dose response, selectivity assay for mouse IAP inhibitor project, biochemical, human TNAP, uHTS hits (AID 488906). Type of experiment: functional.
Experiment [11] has the same target. The experiment can be described thus: TNAP enzyme activators, dose response, selectivity assay for human IAP activator project, biochemical, TNAP isozyme, human IAP uHTS hits (AID 488886).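 Note: potency of compounds raising TNAP activity as a selectivity check on IAP activators.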 The experiment is classed as functional.
Experiment [12] deals with Sphingosine 1-phosphate receptor 5 (Homo sapiens, UniProt Q9H228). Description: Late stage counterscreen assay for S1P4 antagonists: Fluorescence dose response cell-based screening assay for antagonists of the Sphingosine 1-Phosphate Receptor 5 (S1P5). [Related pubchem assays (depositor defined):AID1510, AID1524, AID1692, AID1853, AID2332, AID489009, AID489017]. The experiment is classed as functional. For orientation: The purpose of a counterscreen is to sort out artefacts and off-target activity.
Sequence of Sphingosine 1-phosphate receptor 5 (Q9H228 whole entry): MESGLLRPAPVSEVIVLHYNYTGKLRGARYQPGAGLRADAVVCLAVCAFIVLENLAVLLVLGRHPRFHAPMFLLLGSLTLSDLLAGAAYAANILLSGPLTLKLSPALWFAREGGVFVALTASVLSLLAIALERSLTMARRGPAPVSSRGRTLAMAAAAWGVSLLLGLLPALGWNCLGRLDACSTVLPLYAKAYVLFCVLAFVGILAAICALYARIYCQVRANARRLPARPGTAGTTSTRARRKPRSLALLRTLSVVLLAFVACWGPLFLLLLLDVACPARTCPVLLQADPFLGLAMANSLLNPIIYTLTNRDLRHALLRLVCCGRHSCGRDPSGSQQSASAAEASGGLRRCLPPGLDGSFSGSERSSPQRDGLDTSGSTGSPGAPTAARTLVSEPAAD

Experiment [13] has as its target Sphingosine 1-phosphate receptor 3 (Homo sapiens, UniProt Q99500). The experiment can be described thus: Late stage counterscreen assay for S1P4 antagonists: Fluorescence dose response cell-based screening assay for antagonists of the Sphingosine 1-Phosphate Receptor 3 (S1P3). [Related pubchem assays (depositor defined):AID1510, AID1524, AID1692, AID1853, AID2332, AID489009, AID489017]. Type of experiment: functional.

Experiment [14] addresses Sphingosine 1-phosphate receptor 1 (Homo sapiens, UniProt P21453). The experiment can be described thus: Late stage counterscreen assay for S1P4 antagonists: Fluorescence dose response cell-based screening assay for antagonists of the Sphingosine 1-Phosphate Receptor 1 (S1P1). [Related pubchem assays (depositor defined):AID1510, AID1524, AID1692, AID1853, AID2332, AID489009, AID489017]. The experiment is classed as functional.

The target in experiment [15] is Sphingosine 1-phosphate receptor 2 (Homo sapiens, UniProt O95136). The experiment can be described thus: Late stage counterscreen assay for S1P4 antagonists: Fluorescence dose response cell-based screening assay for antagonists of the Sphingosine 1-Phosphate Receptor 2 (S1P2). [Related pubchem assays (depositor defined):AID1510, AID1524, AID1692, AID1853, AID2332, AID489009, AID489017]. Type of experiment: functional.
Sequence of Sphingosine 1-phosphate receptor 2 (O95136 whole entry): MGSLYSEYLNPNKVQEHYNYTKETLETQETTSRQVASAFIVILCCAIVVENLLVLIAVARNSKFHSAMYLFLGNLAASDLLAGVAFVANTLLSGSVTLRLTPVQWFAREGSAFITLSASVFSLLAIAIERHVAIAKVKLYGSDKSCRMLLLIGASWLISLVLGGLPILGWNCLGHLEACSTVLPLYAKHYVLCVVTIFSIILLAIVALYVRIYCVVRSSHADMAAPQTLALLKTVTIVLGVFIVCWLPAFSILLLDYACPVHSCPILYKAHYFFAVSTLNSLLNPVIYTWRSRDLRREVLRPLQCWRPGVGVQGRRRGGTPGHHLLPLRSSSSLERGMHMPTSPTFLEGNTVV

In experiment [16] the target is Prothrombin (Homo sapiens, UniProt P00734). The experiment can be described thus: Thrombin 1536 HTS Dose Response Confirmation. [Related pubchem assays: 1046 (Thrombin 1536 HTS; hits were confirmed in this assay)]. The experiment is classed as functional.
Experiment [17] concerns the target T6, Calpain-2 catalytic subunit (Sus scrofa, UniProt P43367).
T6 sequence (P43367 whole entry): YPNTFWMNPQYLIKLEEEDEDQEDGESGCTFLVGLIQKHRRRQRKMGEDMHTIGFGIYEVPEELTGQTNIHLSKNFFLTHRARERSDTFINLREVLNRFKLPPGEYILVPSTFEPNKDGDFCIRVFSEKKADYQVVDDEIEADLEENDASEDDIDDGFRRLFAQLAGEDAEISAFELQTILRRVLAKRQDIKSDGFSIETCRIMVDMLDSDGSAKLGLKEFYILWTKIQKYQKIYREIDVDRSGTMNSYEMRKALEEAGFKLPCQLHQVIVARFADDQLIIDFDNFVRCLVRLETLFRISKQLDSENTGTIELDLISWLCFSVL
Description: pig calpain II inhibitor potency, dose response, biochemical, fluorogenic peptide substrate (AID 1420). The experiment is classed as functional.

In experiment [18] the target is T4, Intestinal-type alkaline phosphatase. Description: inhibition of human intestinal alkaline phosphatase – biochemical, dose response (AID 488876). The experiment is classed as functional.

The term EC50 denotes the concentration that produces a half-maximal response. The term IC50 denotes the concentration that inhibits the measured activity by half.

SMILES strings stand for the structures. Active and inactive are the calls of the source.

Sequence of Sphingosine 1-phosphate receptor 3 (Q99500 whole entry): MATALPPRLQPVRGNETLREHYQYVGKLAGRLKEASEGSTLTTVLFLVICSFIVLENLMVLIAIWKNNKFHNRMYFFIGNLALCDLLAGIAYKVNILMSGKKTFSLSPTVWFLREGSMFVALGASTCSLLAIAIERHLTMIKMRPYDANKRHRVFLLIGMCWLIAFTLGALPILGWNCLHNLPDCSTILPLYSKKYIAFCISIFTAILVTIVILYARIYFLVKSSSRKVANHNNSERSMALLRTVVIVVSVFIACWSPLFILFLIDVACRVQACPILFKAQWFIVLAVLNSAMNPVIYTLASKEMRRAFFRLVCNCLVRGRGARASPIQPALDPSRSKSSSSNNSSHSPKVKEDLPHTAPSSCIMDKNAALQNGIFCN
Sequence of Sphingosine 1-phosphate receptor 1 (P21453 whole entry): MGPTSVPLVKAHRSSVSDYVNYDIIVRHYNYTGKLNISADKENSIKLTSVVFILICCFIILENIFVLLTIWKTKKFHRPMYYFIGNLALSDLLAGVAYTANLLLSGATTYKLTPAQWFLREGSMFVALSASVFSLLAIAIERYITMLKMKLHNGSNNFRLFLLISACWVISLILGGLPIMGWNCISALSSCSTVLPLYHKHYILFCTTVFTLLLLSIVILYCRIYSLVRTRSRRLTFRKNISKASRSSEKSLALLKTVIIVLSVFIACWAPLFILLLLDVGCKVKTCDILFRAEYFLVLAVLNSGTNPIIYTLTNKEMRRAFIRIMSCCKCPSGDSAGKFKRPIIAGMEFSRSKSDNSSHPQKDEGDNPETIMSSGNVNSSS

On to `CNc1nnc(-c2cc3ccccc3oc2=O)s1`, for which the 50% effective concentration (EC50) was > 300 µM (not active) in experiment [1], > 300 µM (not active) in [2], > 100 µM (inactive) in [6] and > 100 µM (inactive) in experiment [11]. For the same compound, the IC50 is 5.83 µM (active) in experiment [3]; 1.29 µM (active) in [4]; 1.76 µM (active) in experiment [5]; 1.53 µM (active) in experiment [7]; 5.81 µM (active) in [8]; > 100 µM (inactive) in experiment [9]. Besides, the IC50 in experiment [10] is 25.8 µM (active).

Consider `Cc1ccc(C)c(NC(=O)c2ccc(-c3cc(Cl)ccc3Cl)o2)c1`, for which the IC50 in experiment [12], in experiment [13], in [14] and in [15] was > 25 µM (inactive) in each case.

For the compound `COc1cccc(NC(S)=NCCC(c2ccccc2)c2ccccc2)c1`, the IC50 in experiment [16] is > 50 µM (not active); in experiment [17], 3.72 µM (not active); in experiment [7], 5.12 µM (active); in experiment [10], 92.7 µM (active); in experiment [18] it was > 100 µM (inactive).
